Measurements from US11406590B2, “Essential oil emulsion nostril treatment composition” (King Abdulaziz University, priority 2020, dated 2022).

Tested on: Salmonella enterica subsp. Enterica serovar typhimurium (ATCC 29629, TA 1535)
Assay: Ames test of liposomal preparation
Type: cell-based
Settings: 20 and 200 nmol
Method: To evaluate the safety of the liposomal preparation described in Example 1, the Ames test is performed according to the procedure described by, and incorporated by reference to, Ames et al, Carcinogens are mutagens: their detection and classification. Environ Health Perspect. 1973 December; 6:115-8; Mortelmans and Zeiger, The Ames Salmonella/microsome mutagenicity assay. Mutat Res. 2000 Nov. 20; 455(1-2):29-60.
Briefly, the test organism Salmonella enterica subsp. Enterica serovar typhimurium (ATCC® 29629-Strain Designations: TA 1535), an auxotrophic mutant, is provided by ATCC, Manassas, USA. This auxotrophic isolate has a mutation in its DNA which prevents it from producing histidine and thus requires histidine for its growth.
Potentially mutagenic substances are identified by contacting them with this auxotrophic mutant and measuring the frequency of mutations that restore the ability of this auxotroph to grown a medium not containing histidine. […]
A degree of mutagenicity of the liposome preparation is determined by comparison of the number of colonies appearing on the negative and positive controls and the number of colonies on the solid medium containing different concentrations of the liposome preparation containing the essential oil-in-water emulsion of Example 1.

CC[n+]1c(-c2ccccc2)c2cc(N)ccc2c2ccc(N)cc21 [ethidium bromide]
Colony counts on positive control plates: significant increase
